Measured values reported in the NIST ThermoML archive (doi:10.1021/je8006474).
Numbers after ± are expanded uncertainties.

Details: 101.33 kPa, Liquid, Pycnometric method

With `Fc1ccc(F)c(F)c1` [1,2,4-trifluorobenzene] the mass density (296.6 K) was 1280 ± 36 kg/m3 and the mass density (330.7 K) was 1247 ± 36 kg/m3.
Molecule `Fc1ccccc1F` [1,2-difluorobenzene] has a mass density (296.2 K) of 1156 ± 36 kg/m3 and a mass density (331.1 K) of 1117 ± 36 kg/m3.
Molecule `Fc1cc(F)cc(F)c1` [1,3,5-trifluorobenzene] has a mass density (297.2 K) of 1268 ± 36 kg/m3 and a mass density (324.9 K) of 1225 ± 36 kg/m3.
For `Fc1cccc(F)c1` [1,3-difluorobenzene], the mass density (296.2 K) was 1139 ± 36 kg/m3 and the mass density (330.6 K) was 1094 ± 36 kg/m3.
Molecule `Fc1ccc(F)cc1` [1,4-difluorobenzene] has a mass density (296.1 K) of 1146 ± 36 kg/m3 and a mass density (327.2 K) of 1110 ± 36 kg/m3.
Work on `Fc1ccccc1` [fluorobenzene] yielded a mass density (296.2 K) of 1022 ± 16 kg/m3 and a mass density (330.1 K) of 985 ± 16 kg/m3.
For `Fc1cc(F)c(F)c(F)c1F` [pentafluorobenzene], the mass density (296.9 K) was 1511 ± 20 kg/m3 and the mass density (327.6 K) was 1453 ± 20 kg/m3.
